Series [1] has as its system Capsella bursa-pastoris. The series can be described thus: Herbicidal activity against Capsella bursa-pastoris assessed as weed control at 0.02 M measured after 30 days of treatment relative to control. It is filed as functional.
In series [2] the test system is Capsella bursa-pastoris. The series can be described thus: Herbicidal activity against Capsella bursa-pastoris assessed as weed control at 0.01 M measured after 30 days of treatment relative to control. It is filed as functional.
Series [3] deals with Capsella bursa-pastoris. The series is described as follows: Herbicidal activity against Capsella bursa-pastoris assessed as weed control at 0.02 M measured after 6 days of treatment relative to control. The format is functional.
For series [4], the system named is Capsella bursa-pastoris. The series is described as follows: Herbicidal activity against Capsella bursa-pastoris assessed as weed control at 0.01 M measured after 6 days of treatment relative to control. It is filed as functional.
In series [5] the test system is Thlaspi arvense. The series is described as follows: Herbicidal activity against Thlaspi arvense assessed as weed control at 0.02 M measured after 30 days of treatment relative to control. It is filed as functional.
For series [6], the system named is Thlaspi arvense. The series is described as follows: Herbicidal activity against Thlaspi arvense assessed as weed control at 0.01 M measured after 30 days of treatment relative to control. The format is functional.
Series [7] relates to Thlaspi arvense. The series is described as follows: Herbicidal activity against Thlaspi arvense assessed as weed control at 0.02 M measured after 6 days of treatment relative to control. It is filed as functional.
Series [8] has as its system Thlaspi arvense. The series is described as follows: Herbicidal activity against Thlaspi arvense assessed as weed control at 0.01 M measured after 6 days of treatment relative to control. It is filed as functional.
Series [9] relates to Chenopodium album. The series can be described thus: Herbicidal activity against Chenopodium album assessed as weed control at 0.02 M measured after 30 days of treatment relative to control. It is filed as functional.
The subject of series [10] is Chenopodium album. The series is described as follows: Herbicidal activity against Chenopodium album assessed as weed control at 0.01 M measured after 30 days of treatment relative to control. It is filed as functional.
Series [11] deals with Chenopodium album. The series is described as follows: Herbicidal activity against Chenopodium album assessed as weed control at 0.02 M measured after 6 days of treatment relative to control. It is filed as functional.
Series [12] concerns Chenopodium album. The series can be described thus: Herbicidal activity against Chenopodium album assessed as weed control at 0.01 M measured after 6 days of treatment relative to control. It is filed as functional.
For series [13] the following is noted: buffer.
Series [14] is described as follows: Decomposition temperature of the compound. It is filed as physicochemical.
The nature of series [15]: Decomposition temperature of 5 % of the compound. It is filed as physicochemical.
Series [16] can be described thus: Glass transition temperature of the compound. The format is physicochemical.
Series [17] can be described thus: Melting point of the compound. It is filed as physicochemical.
The subject of series [18] is Centaurea cyanus. The series can be described thus: Herbicidal activity against Centaurea cyanus assessed as weed control at 450 g/ha. The format is functional.
In series [19] the test system is Chenopodium album. The series can be described thus: Herbicidal activity against Chenopodium album assessed as weed control at 450 g/ha. The format is functional.
Series [20] in a line: Cold crystallization temperature of the compound. The format is physicochemical.

In the case of `O=C([O-])COc1ccc(Cl)cc1Cl.[Na+]`, the Activity in series [1] is reported as 100%; in series [2], 100%; in [3], 55%; in series [4], 28%; in series [5] it was 100%; in [6], 100%. The Activity in [7] was found to be 48%; in [8] it was 31%; in series [9] it was 75%; in series [10] it was 25%; in [11], 60%; in series [12], 55%.

With `CCCC[N+]1(C)CCOCC1.O=C([O-])COc1ccc(Cl)cc1Cl`, the solubility entry in [13] is listed as “soluble”.

For the molecule `CCCC[N+]1(C)CCCC1.O=C([O-])COc1ccc(Cl)cc1Cl`, the solubility entry in series [13] is given as “soluble”.

As to `CCCCCOC[N+]1(C)CCCCC1.O=C([O-])COc1ccc(Cl)cc1Cl`, the solubility result in series [13] is “soluble”.

As to `CCCOC[N+]1(C)CCCCC1.O=C([O-])COc1ccc(Cl)cc1Cl`, the solubility entry in series [13] was “soluble”.

Turning to `C[N+]1(C)CCCCC1.O=C([O-])COc1ccc(Cl)cc1Cl`, the solubility entry in series [13] is recorded as “soluble”.

As to `C[n+]1cccc(C(N)=O)c1.O=C([O-])COc1ccc(Cl)cc1Cl`, the solubility entry in series [13] is reported as “soluble”.

For `CCCCCCCCCCCCCCCC[n+]1ccccc1.O=C([O-])COc1ccc(Cl)cc1Cl`, the solubility entry in series [13] is recorded as “soluble”.

Take `CCCCCCCCSCn1cc[n+](C)c1.O=C([O-])COc1ccc(Cl)cc1Cl`: the solubility result in series [13] was “soluble”.

As for `CCCCCCCCOCn1cc[n+](C)c1.O=C([O-])COc1ccc(Cl)cc1Cl`, the solubility result in series [13] is “soluble”.

With `CCCCCCCCCCSC[N+](C)(C)CCO.O=C([O-])COc1ccc(Cl)cc1Cl`, the T was 219 °C in [14], 205 °C in series [15] and -35 °C in [16]. For the same molecule, the solubility entry in series [13] is on record as “soluble”.

`C[N+](C)(CCO)COC1CCCCCCCCCCC1.O=C([O-])COc1ccc(Cl)cc1Cl`: the T turned out to be 280 °C in series [14] and 242 °C in series [15]. Further, in [17], the Tm was found to be 108 °C.

On to `CNC.O=C(O)COc1ccc(Cl)cc1Cl` [2,4-D-Dimethylammonium], for which the values for the Activity in series [18] and in series [19] were 20% and 60%, respectively.

In the case of `CCCCCC(CC)OC(=O)COc1ccc(Cl)cc1Cl` [2,4-D-Ethylhexyl], the Activity came to 80% in [18] and 100% in [19].

Consider `C=CC[N+](C)(C)CC=C.O=C([O-])COc1ccc(Cl)cc1Cl` [DIALLYLDIMETHYLAMMONIUM(2,4-DICHLOROPHENOXY)ACETATE], for which the T in series [14] was 196 °C; in series [15], 187 °C; in [16] it was -42 °C. Moreover, the solubility result in [13] is listed as “soluble”.

With `CCCCCCCCCC[N+](C)(C)CCCCCCCCCC.O=C([O-])COc1ccc(Cl)cc1Cl` [DIDECYLDIMETHYLAMMONIUM(2,4-DICHLOROPHENOXY)ACETATE], the Activity in series [1] amounted to 100%; in [2], 100%; in [3] it was 99%; in series [4], 81%; in series [5] it was 100%; in series [6] it was 100%. Also, the Activity in [7] is 96%; in [8], 82%; in series [9], 100%; in series [10] it was 100%; in series [11] it was 98%; in [12] it was 89%. The T in series [20] is -39 °C; in [14], 260 °C; in series [15], 208 °C; in [16] it was -50 °C. In addition, the Tm in series [17] is -3 °C.

For the molecule `CCCCCCCCCCCCCCCC[N+](C)(C)CCO.O=C([O-])COc1ccc(Cl)cc1Cl` [DODECYLDI(POLYOXYETHYLENE)METHYLAMMONIUM(2,4-DICHLOROPHENOXY)ACETATE], the values for the T in series [14], in series [15] and in series [16] were 285 °C, 219 °C and -54 °C, respectively.

Turning to `CCCCCCCCCCCC[N+](C)(C)CCOc1ccccc1.O=C([O-])COc1ccc(Cl)cc1Cl` [DODECYLDIMETHYLPHENOXYETHYLAMMONIUM(2,4-DICHLOROPHENOXY)ACETATE], the T in series [14] is 273 °C; in series [15], 214 °C; in series [16], -42 °C.

`CCCCCCCCCCCCCCCC[N+](C)(C)C.O=C([O-])COc1ccc(Cl)cc1Cl` [HEXADECYLTRIMETHYLAMMONIUM(2,4-DICHLOROPHENOXY)ACETATE]: the figures for the T in series [14] and in series [15] were 253 °C and 218 °C, respectively. Moreover, the Tm in series [17] was -20 °C.

Source of the values: ChEMBL document CHEMBL3045874, “2,4-D based herbicidal ionic liquids” (Tetrahedron, 2012).
